Assay results published in PMC12040169 (PLOS Biology, 2025).

Assay: in vitro
Settings: human, hela cells
[1] = % viability, bulk resorufin, single well

Compound	viability at 28.5 h, 10 µM (% viability) [%]	other results
CSc1ccc(-c2cnc(N)c3ncccc23)cc1 [CBK067584]	68.4	–
CC(CCc1ccccc1)NC(=O)c1ccccc1C(=O)O (centres unmarked) [CBK286940]	94.5	–
CC1(C)[C@H](Cc2cc(CO)on2)C[C@@H]1NC(=O)C1CCCCC1 [CBK289235]	93.1	–
NCCCCCCNC(=O)c1c(O)c2ccccc2oc1=O [CBK261071]	97.9	–
Fc1cccc(C2NC(S)=NC3=C2N2CCC3CC2)c1 (centres unmarked) [CBK288503]	88.2	–
O=C(Nc1nc(-c2cccc([N+](=O)[O-])c2)cs1)c1ccc(S(=O)(=O)N2CCCC2)cc1 [CBK102813]	86.5	–
CC(C)(C)OC(=O)NCc1ccc(-c2cc(NC3CCCCC3)ncn2)cc1 [CBK090898]	98.5	–
CCN(CC)CC1CCCN(C(=O)Cn2ccc3ccc(F)cc32)C1 (centres unmarked) [CBK282146]	87.8	–
Cc1cc(C)cc(C(=O)N2CCCC(C(=O)N3CCN(c4nccs4)CC3)C2)c1 (centres unmarked) [CBK298307]	95.1	–
Cc1nc2cc(C(=O)NC(C)c3ccccn3)ccc2n1C (centres unmarked) [CBK281822]	84.2	–
COc1ccc(-c2nn(CN3CCC(C(N)=O)CC3)c(=S)n2-c2ccccc2)cc1OC [CBK264299]	91.8	–
Cn1c(=O)[nH]c(=O)c2c1nc(SCCN1CCCCC1)n2CCCc1ccccc1 [CBK269469]	91.7	–
O=C(Nc1ccc(O)cc1C(=O)O)c1ccc2c(c1)C(=O)N(Cc1ccco1)C2=O [CBK267418]	103	–
Cc1ccc(OCC(=O)Nc2cccnc2)c(-n2nc3ccccc3n2)c1 [CBK270281]	90.9	–
FC(F)(F)c1cccc(SCCc2ccccn2)n1 [CBK103719]	97.3	–
CCCc1nn(CC(=O)NC2CCC2)c(=O)c2cc3ccsc3n12 [CBK284194]	89.1	–
CCCCn1c(SCc2nc(-c3ccncc3)no2)nc2ccsc2c1=O [CBK288576]	87	–
CCN1CCCC1CN(Cc1cnn(C)c1)Cc1ccco1 (centres unmarked) [CBK282470]	96.6	–
c1cncc(CNc2cccc(OCCOc3nccnc3N3CCNCC3)c2)c1 [CBK200008]	89.2	–
CCC(=O)N1CCc2cc(C(O)CN3CCCC3)ccc21 (centres unmarked) [CBK283110]	97.7	–
Cc1cc(C)n(C(=O)CCC(=O)Nc2cccc(Cl)c2C)n1 [CBK263851]	99.3	–
COC(=O)[C@H]1CN(C(=O)c2cnn(C)c2C)C[C@@H]1c1ccc(F)cc1 [CBK283721]	84.5	–
Cc1ccc(C(=O)Nc2cccc(-c3nc4ncccc4o3)c2C)cc1[N+](=O)[O-] [CBK262793]	94.3	–

Compound	viability at 28.5 h, 10 µM (% viability) [%]	other results
Clc1ccc(-c2c[nH]c([C@@H]3COCCN3Cc3csnn3)n2)cc1 [CBK289309]	87.1	–
Cc1ccc(C(C)(C)CC(C)NC2C3CC4CC(C3)CC2C4)o1 (centres unmarked) [CBK262871]	93.9	–
CCN(Cc1ccncc1)C(=O)NCCCN1CCN(C)CC1 [CBK155123]	108	–
NCCC(O)(P(=O)(O)O)P(=O)(O)O [CBK260913]	97.6	–
CC(=O)N[C@H]1CC[C@]2(C)CCC([C@H](C)C(=O)N3CCCCC3)[C@H](O)[C@H]2[C@@H]1C (some centres unmarked) [CBK289439]	89.4	–
Cc1ccc(CS(=O)(=O)N(CCO)C2CCC2)c(F)c1 [CBK304101]	82.2	–
CCn1nc(C(C)C)cc1C(=O)N1CCN(C)CC1c1ccccc1 (centres unmarked) [CBK282025]	100	–
CC(C)N(C)CCOc1ncccc1OCCO [CBK039171]	104	–
CC(C)Cn1cncc1CN1C(=O)CC2(CCCC2)CC1=O [CBK306600]	116	–
O=C(CC1(O)C(=O)N(Cc2ccccc2)c2ccccc21)c1cc2ccccc2oc1=O (centres unmarked) [CBK293963]	106	–
CC(C)NC(=O)CN(C)Cc1nc(-c2cccc(C(F)(F)F)c2)no1 [CBK306036]	72.2	–
CC(=O)Nc1ccc(CNc2ccc(Cl)cc2)cc1 [CBK012799]	104	–
COc1ccc(N2C(=O)CC(Nc3cc(C(=O)O)ccc3C)C2=O)c(OC)c1 (centres unmarked) [CBK296650]	114	–
CCC1CCCCN1C(=O)c1cc(Br)c(Br)s1 (centres unmarked) [CBK089360]	92.5	–
CCCc1cc(C(=O)NC(c2ccccc2)c2cccnc2)[nH]n1 (centres unmarked) [CBK282462]	93.8	–
N#Cc1cccc(NC(=O)c2cccs2)c1 [CBK066855]	96.2	–
O=C1c2ccccc2C(=O)N1CCCN1CCN(CCCN2C(=O)c3ccccc3C2=O)CC1 [CBK260963]	91.6	–
CCOc1ccc(S(=O)(=O)N(C)CC(=O)N2CCN(C)CC2)cc1 [CBK269953]	93.8	–
CC(C)(C)OC(=O)N1CCC2(CC1)OCc1cc(-c3cccc(C(=O)O)c3)ccc1O2 [CBK107809]	–	viability at 28.5 h, 10 µM [1]: 87.5%
CC(=O)N1CCC[C@@H]1C(=O)N1CC[C@@H]2NC(=O)[C@H](Cc3ccccc3)NC(=O)C3(C/C=C/C[C@@H]2C1)CCOCC3 [CBK292195]	104	–
CCn1c(C)nc2cc(NC(=O)c3cnn(C)c3)ccc21 [CBK281837]	86.1	–
COc1ccc(C(=O)Nc2ccccc2)cc1S(=O)(=O)Nc1cccnc1 [CBK266771]	94.4	–
COc1ccc(-c2cc(C(=O)Nc3c(C)cccc3C)n[nH]2)c(OC)c1 [CBK288114]	107	–

Compound	viability at 28.5 h, 10 µM (% viability) [%]	other results
O=C(O)CCc1ccc(-c2ccccc2)n1CC1CCCO1 (centres unmarked) [CBK267955]	102	–
COc1ccc(-c2cnc(N)c(NCC(C)(C)CO)n2)c(OC)c1OC [CBK063542]	103	–
CC(C)(C)c1cc(C(=O)NCC2CCCN2)n(Cc2ccc(Cl)cc2Cl)n1 (centres unmarked) [CBK115920C]	96.1	–
Fc1cccc(N2CCN(Cc3ccccc3)CC2)n1 [CBK000144]	102	–
CCN(CC)C(=O)C1CCCN(C(=O)Nc2ccc3c(c2)OCCO3)C1 (centres unmarked) [CBK156135]	92.3	–
O=[N+]([O-])c1ccc2c(c1)C(N1CCOCC1)/C(=C/C1(O)CCCCC1)O2 (centres unmarked) [CBK263200]	103	–
CC(C)(O)C1(C)OC(NC2C3CC4CC(C3)CC2C4)=NC1=O (centres unmarked) [CBK126370]	91.2	–
Cc1ccc(C(=O)O)cc1S(=O)(=O)N(C)CCO [CBK267167]	94.1	–
O=C(NCCn1nc(-c2cccs2)ccc1=O)c1ccco1 [CBK283838]	90.1	–
C/C(=N\N=C1\N=C(O)C(CC(=O)NCc2ccccc2)S1)c1ccco1 (centres unmarked) [CBK263698]	89.9	–
CC(C)CN1CC2(CCN(C(=O)OCc3ccccc3)CC2)c2ccccc21 [CBK022626C]	106	–
COc1cc(CNc2nc(-c3c(C)cccc3C)cn3ccnc23)cc(OC)c1OC [CBK037415]	91.1	–
CC(C)NC(=O)c1ccccc1Br [CBK026505]	86.2	–
Cc1cccc(C)c1NC(=O)CC(C(=O)O)N(C)C (centres unmarked) [CBK267022]	90.9	–
CCNC(=O)N1CC2(CCN(CCc3cccc4ccccc34)CC2)c2ccccc21 [CBK136965]	94.7	–
CCN1CCC[C@@H]1CNC(=O)c1cc(Cl)nc(OC)c1 [CBK174692]	88.3	–
Cc1ccc(N2C(=O)NC(=O)/C(=C\c3ccc(OCC(=O)O)c(Br)c3)C2=O)cc1C [CBK263899]	–	viability at 28.5 h, 10 µM [1]: 84%
COc1ccc(S(=O)(=O)Nc2ccccc2C(=O)O)cc1OC [CBK042368]	85.7	–
Cc1ccc(C(=O)C(C)OC(=O)c2cc(-c3ccccc3)nc3ccccc23)cc1 (centres unmarked) [CBK264067]	99.8	–
O=P(O)(O)CCCc1ccccc1 [CBK012021]	–	viability at 28.5 h, 10 µM: 80.5%
COc1ccc(NC(=O)c2cc3nc(C)ccc3o2)cc1 [CBK287663]	102	–
CCOC(=O)c1c(NC(=O)CCN2C(=O)c3cccc4cccc(c34)C2=O)sc2c1CCC2 [CBK262982]	111	–
CCc1nnc(SCC(=O)Nc2cc(OC)ccc2OC)[nH]1 [CBK270167]	85.1	–

Compound	viability at 28.5 h, 10 µM (% viability) [%]	other results
O=S(=O)(c1ccc2ccccc2c1)N1CCCCC1CO (centres unmarked) [CBK200055]	100	–
CC(C)(C)NC(=O)CCn1c(-c2ccncc2)cc2cccnc21 [CBK282620]	95.4	–
CN(CC(=O)Nc1cc2ccccc2c(N2CCNCC2)n1)C(=O)c1ccccc1 [CBK028421T]	93	–
Fc1ccc(OCCNC2CCc3[nH]c4ccccc4c3C2)cc1 (centres unmarked) [CBK107791]	83.7	–
COc1ccc(C[C@@]23CCC(=O)C[C@@H]2N(C)CC3)cc1 [CBK009720]	102	–
CCOC(=O)c1cccc(NS(=O)(=O)c2ccc(Br)cc2)c1 [CBK034346]	97.7	–
CC(=O)Nc1ccc(Cc2nc(C3CC3)no2)cc1 [CBK305197]	92.1	–
Cc1c(Cl)cccc1S(=O)(=O)NC1=NC(=O)C(CC(=O)Nc2ccccc2Cl)S1 (centres unmarked) [CBK200043]	107	–
CCCN1CCN(c2ncc(CNS(=O)(=O)c3ccc(Cl)cc3)cn2)CC1 [CBK010261]	101	–
CS(=O)(=O)NCC1CCCCN1Cc1ccc(-n2cccn2)cc1 (centres unmarked) [CBK305587]	91.9	–
CN(CC1CCCOC1)C(=O)c1ncsc1Nc1ccccc1 (centres unmarked) [CBK304250]	94.4	–
CC(=O)OCc1nc2cc(F)c(F)cc2[nH]1 [CBK110117]	92.9	–
N#CCCN1CCCC2(C1)NCCc1c2[nH]c2ccccc12 (centres unmarked) [CBK040031]	97	–
CN1CCN(c2ccc([N+](=O)[O-])cc2/C=N/NC(=O)CCc2ccccc2O)CC1 [CBK263281]	97.7	–
O=C(NCCCn1ccnc1)c1cc([N+](=O)[O-])cc([N+](=O)[O-])c1 [CBK261773]	–	viability at 28.5 h, 10 µM [1]: 87.5%
Cc1cc2nnc(SC(C)c3nc(-c4ccccc4)no3)n2c(C)n1 (centres unmarked) [CBK298306]	91.7	–
COc1cccc(CN2CCCC3(C2)NCCc2c3[nH]c3cc(F)ccc23)c1 (centres unmarked) [CBK039786]	87.5	–
Cc1ccc(-n2nc(-c3ccc(NC(=O)c4ccccc4)cc3)cc2NC(=O)c2ccccc2)cc1 [CBK261265]	92.3	–
CCOc1ccccc1C(=O)N1CCC(Cc2cccc(-c3cccs3)c2)(C(N)=O)CC1 [CBK285914]	84.9	–
N#CC1CCCc2c1[nH]c1ccc(Br)cc21 (centres unmarked) [CBK026475]	64.7	–
